From article doi:10.1101/2024.09.25.615046, “Identification of SLC45A4 as a pain gene encoding a neuronal polyamine transporter” (bioRxiv, 2024)

Key:
SLC45A4 (HsSLC45A4) [1] = target: T1, SLC45A4 (HsSLC45A4) (Homo sapiens, UniProt Q5BKX6); assay: competition of […]-spermidine uptake, Neuro-2A cells; format: cell-based; design: full-length; uptake: C-terminal FLAG tag, pLexM, overexpressed in mouse Neuro-2A cells; details: 1 uM 14C-spermidine, pH 7.5, 37 °C; unreliable unit: printed mM is probably µM (lost symbol font)
T1 sequence (Q5BKX6 1-768): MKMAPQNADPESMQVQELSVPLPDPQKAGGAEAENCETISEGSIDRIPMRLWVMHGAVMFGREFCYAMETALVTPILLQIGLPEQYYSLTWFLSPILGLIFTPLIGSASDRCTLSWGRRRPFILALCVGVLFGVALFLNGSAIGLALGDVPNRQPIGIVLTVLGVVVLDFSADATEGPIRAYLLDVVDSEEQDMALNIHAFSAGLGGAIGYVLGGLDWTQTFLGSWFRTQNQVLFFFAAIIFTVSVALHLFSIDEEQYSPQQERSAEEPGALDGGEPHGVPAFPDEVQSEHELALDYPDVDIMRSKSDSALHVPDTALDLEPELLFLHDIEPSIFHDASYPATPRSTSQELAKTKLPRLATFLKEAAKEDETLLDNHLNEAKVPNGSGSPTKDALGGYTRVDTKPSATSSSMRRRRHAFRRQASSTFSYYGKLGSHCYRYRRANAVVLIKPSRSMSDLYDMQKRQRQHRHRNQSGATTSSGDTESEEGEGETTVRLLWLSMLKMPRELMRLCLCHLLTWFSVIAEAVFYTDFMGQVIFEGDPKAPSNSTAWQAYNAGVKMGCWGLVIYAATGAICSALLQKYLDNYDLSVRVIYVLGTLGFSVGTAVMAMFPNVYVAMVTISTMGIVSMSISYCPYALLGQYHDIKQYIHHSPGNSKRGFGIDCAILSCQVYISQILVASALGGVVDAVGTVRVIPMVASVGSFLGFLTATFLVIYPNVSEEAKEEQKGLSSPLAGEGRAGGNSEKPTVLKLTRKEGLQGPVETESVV

SLC45A4 (HsSLC45A4) [2] = target: T1, SLC45A4 (HsSLC45A4); assay: nanoDSF thermal shift, purified protein; format: binding; design: full-length; uptake: C-terminal FLAG tag, pLexM, overexpressed in mouse Neuro-2A cells; nanoDSF: purified in DDM:CHS (eGFP-His tag removed by TEV); details: 2.5-50 mM metabolite, DDM:CHS, 150 mM NaCl, 20 mM Tris or MES pH 7.5

IC50 (SLC45A4 (HsSLC45A4) [1]) [mM] | SMILES | thermal stability (SLC45A4 (HsSLC45A4) [2])
67 | NCCCCCN [Cad] | 
74 | NCCCCN [Put] | 
 | NCCCCNCCCN [Spd] | polyamines Spm and Spd eliciting the largest response
 | NCCCNCCCCNCCCN [Spm] | polyamines Spm and Spd eliciting the largest response
